Measured values from publication PMC4132841 (Neuron, 2012).
Values joined by “and” are separate entries in the source; they are usually repeats but may differ in a detail not shown here. Equal values may be shown once. Read-outs that look alike come from different tables or passages of the source. One block for each compound: values may come before it.

Tests used:
GluK2b(Q) and GluK3 = GluK2b(Q) and GluK3 (Rattus norvegicus, UniProt P42264); assay: Glutamate-activated currents in HEK293 cells cotransfected with GluK2b; format: cell-based; details: 1 μM UBP310; n = 6
[1] = system: KARs containing GluK4 or GluK5 subunits; details: read-out: IC50 of zinc inhibition; ref Mott et al., 2008; cited from earlier work
GluN1/GluN2B = details: ref Paoletti et al., 1997; cited from earlier work
GluK2 [2] = molecular target: T1, GluK2 (Rattus norvegicus, UniProt P42260); format: cell-based; details: 10 mM glutamate
GluK2/K3S2 = assay: Whole-cell glutamate currents of S2 chimera; format: cell-based, rat; details: 100 μM zinc; 10 mM glutamate, 100 ms; n = 5
GluK3 [3] = molecular target: T2, GluK3 (Rattus norvegicus, UniProt P42264); format: cell-based
GluK2b(D729A) and GluK3 = GluK2b(D729A) and GluK3 (Rattus norvegicus, UniProt P42260+P42264, D760A); assay: Glutamate currents of heteromeric mutant receptors; format: cell-based; details: 10 mM glutamate
[4] = system: transmembrane and intracellular segments of GluK3 and the extracellular domain of GluK2; assay: Whole-cell glutamate currents of chimeric receptor; format: cell-based, rat; details: 100 μM zinc; 10 mM glutamate, 100 ms; n = 4
GluK3(D759G) = GluK3(D759G) (Rattus norvegicus, UniProt P42264, D790G); assay: Glutamate currents of point mutant, outside-out patches; format: cell-based; details: 100 μM zinc; 10 mM glutamate; n = 5
GluK1-GluK2 = details: read-out: IC50 of zinc inhibition; ref Mott et al., 2008; cited from earlier work
GluN1/GluN2A receptors = details: ref Paoletti et al., 1997; cited from earlier work
GluK3(D730A) = GluK3(D730A) (Rattus norvegicus, UniProt P42264, D761A); assay: Glutamate currents of point mutant, outside-out patches; format: cell-based; details: 100 μM zinc; 10 mM glutamate; n = 6
GluK3 [5] = molecular target: T2, GluK3; format: cell-based; details: for effect of zinc on GluK3 currents: 100 μM zinc
GluK3/K2S2 = GluK3/K2S2 (Rattus norvegicus, UniProt P42260+P42264, A594P/A717V/A732S/D593N/D790G/E602D/E705D/F704Y/G600D/I638V/I746V/I767V/I794M/I818V/I844L/INS713R/K688E/K714R/K820N/L736F/L837F/M618V/N721S/N810S/P715Q/S620A/S803N/T729V/V569I/Y745F); assay: Whole-cell glutamate currents of S2 chimera; format: cell-based; details: 100 μM zinc; 10 mM glutamate, 100 ms; n = 5
GluK3(D730N) = GluK3(D730N) (Rattus norvegicus, UniProt P42264, D761N); assay: Glutamate currents of point mutant, outside-out patches; format: cell-based; details: 100 μM zinc; 10 mM glutamate
[6] = molecular target: heteromeric GluK2/GluK3 receptors (Rattus norvegicus, UniProt P42260+P42264); assay: Glutamate currents of heteromeric GluK2b; format: cell-based
[7] = molecular target: GluK3 subunits deleted of their ATD (Rattus norvegicus, UniProt P42264); assay: Whole-cell glutamate currents of ATD-deleted receptor; format: cell-based; details: 100 μM zinc; 10 mM glutamate, 100 ms; n = 5
GluK2(G758D) = GluK2(G758D) (Rattus norvegicus, UniProt P42260, G789D); assay: Glutamate currents of point mutant, outside-out patches; format: cell-based; details: 100 μM zinc; 10 mM glutamate; n = 6
GluK2 [8] = molecular target: T1, GluK2; format: cell-based; details: 100 μM zinc; control 3.4 ± 0.1 ms; n = 5; p = 0.20
GluK3(H492A) = GluK3(H492A) (Rattus norvegicus, UniProt P42264, H523A); assay: Glutamate currents of point mutant; format: cell-based; details: 100 μM zinc; 10 mM glutamate
GluK3(H492Y) = GluK3(H492Y) (Rattus norvegicus, UniProt P42264, H523Y); assay: Glutamate currents of point mutant; format: cell-based; details: 100 μM zinc; 10 mM glutamate
GluK2b and GluK3(D730A) = GluK2b and GluK3(D730A) (Rattus norvegicus, UniProt P42260+P42264, D761A); assay: Glutamate currents of heteromeric mutant receptors, 1 μM UBP310 present; format: cell-based; details: 100 μM zinc, 10 mM glutamate
GluK3(H492C, L753C) = GluK3(H492C, L753C) (Rattus norvegicus, UniProt P42264, H523C/L784C); assay: Glutamate currents of desensitization mutant GluK3; format: cell-based; details: 100 μM zinc; 10 mM glutamate, 100 ms
GluK2(Y490H) = GluK2(Y490H) (Rattus norvegicus, UniProt P42260, Y521H); assay: Glutamate currents of point mutant; format: cell-based; details: 100 μM zinc; 10 mM glutamate
GluK3(ERLK) = GluK3(ERLK) (Rattus norvegicus, UniProt P42264, I781L/K527E/K698R/Q785K); assay: Glutamate currents of desensitization mutant GluK3; format: cell-based; details: 100 μM zinc
GluK3(H762A) = GluK3(H762A) (Rattus norvegicus, UniProt P42264, H793A); assay: Glutamate currents of point mutant, outside-out patches; format: cell-based; details: 100 μM zinc; 10 mM glutamate; n = 5
[9] = molecular target: GluK2 receptors where the ATD was excised (Rattus norvegicus, UniProt P42260); assay: Whole-cell glutamate currents of ATD-deleted receptor; format: cell-based; details: 100 μM zinc; 10 mM glutamate, 100 ms; n = 4
[10] = system: extracellular domain of GluK3 and the transmembrane and intracellular segments of GluK2; assay: Whole-cell glutamate currents of chimeric receptor; format: cell-based, rat; details: 100 μM zinc; 10 mM glutamate, 100 ms; n = 5
[11] = combined potentiation/inhibition Hill equations

T2 sequence (P42264 32-919): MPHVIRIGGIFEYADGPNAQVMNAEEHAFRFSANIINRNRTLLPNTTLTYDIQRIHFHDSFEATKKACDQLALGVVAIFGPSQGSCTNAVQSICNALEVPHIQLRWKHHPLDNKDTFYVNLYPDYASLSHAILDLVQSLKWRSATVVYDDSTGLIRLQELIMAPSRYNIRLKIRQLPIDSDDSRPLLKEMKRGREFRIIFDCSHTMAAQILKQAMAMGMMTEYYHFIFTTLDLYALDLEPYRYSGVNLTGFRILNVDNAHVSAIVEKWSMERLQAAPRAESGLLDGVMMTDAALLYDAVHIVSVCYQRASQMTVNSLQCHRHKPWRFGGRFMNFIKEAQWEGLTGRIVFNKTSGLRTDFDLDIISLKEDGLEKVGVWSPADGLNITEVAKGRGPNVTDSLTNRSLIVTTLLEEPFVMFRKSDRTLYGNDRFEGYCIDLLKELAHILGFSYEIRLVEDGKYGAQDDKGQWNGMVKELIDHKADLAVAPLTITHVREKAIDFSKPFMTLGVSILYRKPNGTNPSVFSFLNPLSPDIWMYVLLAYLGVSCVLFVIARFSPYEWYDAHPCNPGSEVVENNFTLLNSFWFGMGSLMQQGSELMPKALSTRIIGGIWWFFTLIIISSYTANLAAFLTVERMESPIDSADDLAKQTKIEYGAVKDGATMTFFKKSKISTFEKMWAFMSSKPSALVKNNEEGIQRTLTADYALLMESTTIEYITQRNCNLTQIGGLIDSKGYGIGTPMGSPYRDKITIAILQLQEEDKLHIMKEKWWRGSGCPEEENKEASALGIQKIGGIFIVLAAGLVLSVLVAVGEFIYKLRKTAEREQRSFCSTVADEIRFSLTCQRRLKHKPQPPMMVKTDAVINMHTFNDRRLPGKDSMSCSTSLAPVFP
Chain of GluK3(ERLK) (P42264 32-919 K527E/K698R/I781L/Q785K): as the sequence (P42264 32-919) above, with K496E, K667R, I750L, Q754K counted along it
Chain of GluK3(D759G) (P42264 32-919 D790G): as the sequence (P42264 32-919) above, with D759G counted along it
Chain of GluK3(H492C, L753C) (P42264 32-919 H523C/L784C): as the sequence (P42264 32-919) above, with H492C, L753C counted along it
Chain of GluK3(D730A) (P42264 32-919 D761A): as the sequence (P42264 32-919) above, with D730A counted along it
Chain of GluK3(H492A) (P42264 32-919 H523A): as the sequence (P42264 32-919) above, with H492A counted along it
Chain of GluK3(D730N) (P42264 32-919 D761N): as the sequence (P42264 32-919) above, with D730N counted along it
Chain of GluK3(H762A) (P42264 32-919 H793A): as the sequence (P42264 32-919) above, with H762A counted along it
Chain of GluK2b(Q) and GluK3 (P42264 32-919): as the sequence (P42264 32-919) above
Chain of GluK3 subunits deleted of their ATD (P42264 376-919, stated change not applied): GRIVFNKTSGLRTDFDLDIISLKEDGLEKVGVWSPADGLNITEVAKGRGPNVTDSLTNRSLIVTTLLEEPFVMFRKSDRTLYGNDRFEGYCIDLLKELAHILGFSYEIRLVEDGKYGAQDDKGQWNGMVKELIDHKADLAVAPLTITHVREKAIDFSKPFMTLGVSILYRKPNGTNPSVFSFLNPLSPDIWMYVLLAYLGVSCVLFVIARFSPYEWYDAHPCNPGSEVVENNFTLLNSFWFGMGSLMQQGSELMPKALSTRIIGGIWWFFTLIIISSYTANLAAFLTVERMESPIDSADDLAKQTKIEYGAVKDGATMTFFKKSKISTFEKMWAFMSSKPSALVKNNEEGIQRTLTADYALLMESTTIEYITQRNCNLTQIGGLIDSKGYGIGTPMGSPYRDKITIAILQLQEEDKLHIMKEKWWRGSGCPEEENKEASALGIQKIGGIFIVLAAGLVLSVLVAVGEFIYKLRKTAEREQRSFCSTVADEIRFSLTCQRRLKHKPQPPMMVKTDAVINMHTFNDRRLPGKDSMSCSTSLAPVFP
Chain of GluK3(H492Y) (P42264 32-919 H523Y): as the sequence (P42264 32-919) above, with H492Y counted along it

inhibition of glutamate-activated currents (GluK2b(Q) and GluK3): 55%
SMILES: Cc1cn(C[C@H](N)C(=O)O)c(=O)n(Cc2ccsc2C(=O)O)c1=O [UBP310]

SMILES: [Cl-].[Cl-].[Zn+2] [zinc, ZnCl2]
IC50 [1]: 1 to 2 µM
affinity of zinc inhibition of NMDAR function (GluN1/GluN2B): low micromolar
Hill coefficient (nH) of zinc inhibition of GluK2 currents (GluK2 [2]): 1.1 and 1.1 ± 0.1
current with zinc (facilitated), % (GluK2/K3S2): 197% ± 9%
τdes (current decay) with zinc (GluK3 [3]; 100 μM zinc, 10 mM glutamate, 100 ms, control 5.0 ± 0.2 ms, n = 8): 9.8 ± 0.4 ms
time for half-recovery from desensitization with zinc (GluK3 [3]; 100 μM zinc, absence of zinc 902 ± 1.1 ms, n = 5): 460 ± 1.2 ms
deactivation kinetics with zinc (GluK3 [3]; 1 ms pulses of 10 mM glutamate, control 1.5 ± 0.05 ms, n = 4): 2.3 ± 0.1 ms
current amplitude with zinc, % of control amplitude (GluK3 [3]; 1 ms pulses of 10 mM glutamate, n = 4): 191% ± 22%
effect of zinc on glutamate currents (GluK2b(D729A) and GluK3): did not potentiate
current with zinc (inhibited), % [4]: 40% ± 8%
current with zinc (inhibited), % (GluK3(D759G)): 32% ± 9%
IC50 (GluK1-GluK2): ~70 µM
affinity of zinc inhibition of NMDAR function (GluN1/GluN2A receptors): low nanomolar
current amplitude with zinc, % of control amplitude (GluK3(D730A)): 33% ± 2%
current amplitude with zinc, % of control amplitude (GluK3 [5]; 100 μM zinc preapplied, 10 mM glutamate, 100 ms, whole-cell, n = 17): 193% ± 38%
effect of zinc on GluK3 currents (GluK3 [5]; pH 6.8): inhibited
effect of zinc on GluK3 currents (GluK3 [5]; pH 8.3): potentiated
zinc concentrations that clearly inhibit currents (GluK3 [5]; WT GluK3 receptors): above 300 μM
maximal potentiation of GluK3 currents by zinc (GluK3 [5]; [11]): 475% ± 47%
nH of zinc potentiation of GluK3 currents (GluK3 [5]; [11]): 1.82 ± 0.95
zinc concentrations that potentiate glutamate currents (GluK3 [5]; homomeric and heteromeric KARs containing GluK3): 10 to 100 µM
effect of zinc on GluK3-mediated currents (GluK3 [5]; simultaneous application of zinc and glutamate, data not shown): does not potentiate
current with zinc (inhibited), % (GluK3/K2S2): 54% ± 6%
effect of zinc on glutamate currents (GluK3(D730N)): retained zinc potentiation
UBP310-resistant current with zinc, % of control ([6]; 100 μM zinc, 10 mM glutamate, 1 μM UBP310, n = 18): 157% ± 7%
maximal potentiation by zinc, % of control ([6]; 10 mM glutamate, Hill fit): 286%
nH of zinc potentiation of GluK2/GluK3 currents ([6]; 10 mM glutamate, Hill fit): 0.6 and 0.6 ± 0.4
inhibition of GluK2/GluK3 currents by high zinc ([6]; zinc concentrations up to 1 mM): no inhibition
current with zinc (potentiation), % [7]: 186% ± 13%
current amplitude with zinc, % of control amplitude (GluK2(G758D)): 177% ± 7%
τdes (current decay) with zinc (GluK2 [8]): 3.7 ± 0.1 ms
effect of zinc on glutamate currents (GluK3(H492A)): still potentiated
effect of zinc on glutamate currents (GluK3(H492Y)): still potentiated
effect of zinc on glutamate currents (GluK2b and GluK3(D730A)): potentiation
effect of zinc on glutamate currents (GluK3(H492C, L753C)): inhibited
effect of zinc on glutamate currents (GluK2(Y490H)): inhibited
effect of zinc on desensitization rate (GluK3(ERLK)): no change
effect of zinc on glutamate currents (GluK3(ERLK); 10 mM glutamate, 100 ms): inhibited rather than potentiated
peak amplitude with zinc, % (GluK3(H762A)): 45% ± 6%
current with zinc (inhibition), % [9]: 44% ± 11%
current amplitude with zinc, % of control amplitude [10]: 175% ± 9%
